Test results taken from patent EP4205737A1, “COMPOSITION FOR PREVENTION, AMELIORATION, OR TREATMENT OF INFLAMMATORY DISEASES OR IMMUNE DISEASES COMPRISING GANCAONIN N AS ACTIVE INGREDIENT” (UNIVERSITY-INDUSTRY COOPERATION GROUP OF KYUNG HEE …, priority 2020, dated 2022).

How the values were obtained:
RAW264.7 cells = assay: Cell viability analysis (MTT), RAW264.7 cells; assay type: cell-based, murine; details: Raw264.7 cells, 5, 10, 20, 40 µM, 24 hours, compared to the control group (FIG. 1A)
Experimental: RAW264.7 murine macrophage cells were purchased from Korean Cell Line Bank (in Seoul, South Korea). A549 human alveolar basal epithelial cells were purchased from American Type Culture Collection (in ATCC, MD, USA). The cells were cultured in DMEM medium (manufactured by Corning Inc., NY, USA) containing 10% FBS (manufactured by Gibco, NY, USA) and 1X antibiotic-antimycotic solution (manufactured by ABAM, Corning Inc., NY, USA) under conditions of 37°C and 5% CO2.
To evaluate the cytotoxicity of gancaonin N, RAW264.7 cells and A549 cells were dispensed into 96-well plates (1 × 10^4 cells/well) and cultured under conditions of 37°C and 5% CO2. After the culturing, the cells were treated with gancaonin N at concentrations of 5, 10, 20, or 40 µM for 24 hours, and MTT solution (5 mg/mL) was added to each well. After adding 100 µL of dimethyl sulfoxide (DMSO, manufactured by Sigma-Aldrich, St. Louis, MO, USA), the absorbance was measured at 540 nm using a microplate reader (manufactured by Bio-Rad Hercules, CA, USA).
To examine the cytotoxicity of gancaonin N, the inventors treated Raw264.7 cells and A549 cells with gancaonin N according to the methods of Examples 1 to 4 and then measured cell viability.

IL-1β = assay: Western blotting of IL-1β protein in LPS-stimulated A549 cells; assay type: cell-based, human; details: LPS 5 µg/mL, 5 to 40 µM (FIG. 4B)
Experimental: (§1) RAW264.7 cells and A549 cells were dispensed into 6-well plates (1 × 10^6 cells/well) and cultured under conditions of 37°C and 5% CO2. After the culturing, the Raw 264.7 cells were treated with 1 µg/mL of lipopolysaccharide (LPS) and the A549 cells were treated with 5 µg/mL of lipopolysaccharide (LPS) and with 5 µM to 40 µM of gancaonin N, and the cells were cultured for 24 hours or 6 hours. Then, the cells were lysed using a lysis buffer. In addition, the left lung extracted from each mouse was lysed using RIPA buffer. SDS-PAGE electrophoresis was performed on the cell and tissue lysates to separate proteins by side, and 5% bovine serum albumin was used for culturing and for blocking antibodies against PGE2 (1:500), IL-1β (1:500), IL-6 (1:500), TNF-α (1:500), i-NOS (1:500), COX-2 (1:1000), P-ERK1/2 (1:1000), ERK1/2 (1:3000), P-p38 (1:1000), p38 (1:3000), NF-κB p65 (1:1000), Lamin B1 (1:1000), and β-actin (1: 5,000).
For the pro-inflammatory cytokines whose mRNA expression inhibition was confirmed as above, the expression level of the protein encoded by the mRNA was further checked. To determine the protein expression level, A549 cells were treated with LPS and gancaonin N as described in Examples 1 to 8, and the protein expression levels were checked.

[1] = test system: extracellular signal-regulated kinase (ERK); assay: MAPK/NF-κB signaling pathway: ERK in LPS-stimulated A549 cells; assay type: cell-based, human
Experimental: as §1
(§2) To identify through which pathway the anti-inflammatory response occurs, the role of gancaonin N in the MAPK/NF-κB signaling pathway was investigated. […]

p38 = assay: MAPK/NF-κB signaling pathway: p38 in LPS-stimulated A549 cells; assay type: cell-based, human
Experimental: as §1, §2

[2] = test system: LPS-induced acute lung injury (ALI) mouse model; assay: Bronchoalveolar lavage fluid analysis (inflammatory cell infiltration), LPS-induced acute lung injury mouse model; assay type: in vivo, BALB/c mice; details: mice, 10 mg/kg or 30 mg/kg intraperitoneally one hour before intratracheal LPS
Experimental: (§3) 25 6-week-old female BALB/c mice having a weight of 18g to 20 g were purchased from BioLink (DBL CO., Eumseong, Chungcheongbuk-do, Korea), and reared in the animal laboratory of KyungHee University. To establish an LPS-induced acute lung injury model, all the mice were divided into five groups each group of which consisted of 5 mice, and the five groups were referred to as control, vehicle (only LPS treatment), gancaonin N (10 mg/kg), gancaonin N (30 mg/kg), and dexamethasone (3 mg/kg). Gancaonin N was intraperitoneally injected at a dose of 10 mg/kg or 30 mg/kg, and dexamethasone was intraperitoneally injected at a dose of 3 mg/kg as a positive control group. In addition, the control and vehicle groups were intraperitoneally injected with 4% DMSO in which gancaonin N was dissolved. […]
Bronchoalveolar lavage fluid (BALF) was obtained after anesthetizing each mouse with intranasal isoflurane. […] The cells were stained with the Diff-Quik kit (Sysmex, Kobe, Japan), observed under a microscope, and sorted, and then the total cells and neutrophils were counted.
(§4) The mouse models prepared as described in Examples 1 to 3 were treated with LPS to induce acute lung injury (ALI), and then the anti-inflammatory effect of gancaonin N was specifically evaluated for the mice of five groups (control, vehicle (only LPS), gancaonin N (10 mg/kg), gancaonin N (30 mg/kg), and dexamethasone (3 mg/kg)), […]

[3] = test system: LPS-induced acute lung injury (ALI) mouse model; assay: Lung wet/dry ratio measurement (pulmonary edema), LPS-induced acute lung injury mouse model; assay type: in vivo, BALB/c mice; details: mice, 10 mg/kg or 30 mg/kg intraperitoneally, LPS-induced ALI (FIG. 7)
Experimental: as §3
To determine the severity of pulmonary edema, the wet weight of the right upper lung was measured, the tissue was dried 60°C for 72 hours, and the dry weight was measured. Afterwards, the W/D ratio was calculated.
as §4

## COc1ccc(-c2coc3cc(O)c(CC=C(C)C)c(O)c3c2=O)c(O)c1 [gancaonin N, 5,7-dihydroxy-3-(2-hydroxy-4-methoxyphenyl)-6-(3-methylbut-2-enyl)chromen-4-one]
RAW264.7 cells
  cell viability: did not decrease
IL-1β
  protein expression of IL-1β: significantly inhibited
[1]; 5µM to 40 µM 2 hours before LPS treatment (FIG. 5A)
  activity/protein expression levels of ERK: significantly reduced
[1]; LPS, tested 5µM to 40 µM
  amount of gancaonin N at which the inhibitory effect on the activity/protein expression levels of ERK was most excellent: 40 µM
p38; 5µM to 40 µM 2 hours before LPS treatment (FIG. 5B)
  activity/protein expression levels of p38: significantly reduced
p38; LPS, tested 5µM to 40 µM
  amount of gancaonin N at which the inhibitory effect on the activity/protein expression levels of p38 was most excellent: 20 µM
[2]; sacrificed 12 hours later (FIG. 6B)
  cell count in bronchoalveolar lavage fluid (BALF): significantly reduced
[2]; sacrificed 12 hours later (FIG. 6C)
  neutrophil count in bronchoalveolar lavage fluid (BALF): significantly reduced
[3]
  W/D ratio: significantly lowered
